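Cultured in 96-well plates, cells were exposed to test compound for 48 hours across five concentrations. TGI: concentration producing complete growth inhibition.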
How the values were obtained:
Assay in all cases: DTP human tumour cell line panel, 48 h
MDA-N = system: MDA-N
OVCAR-5 ovarian = system: OVCAR-5 ovarian
NCI-H522 lung = system: NCI-H522 lung
RXF 393 renal = system: RXF 393 renal
SF-295 CNS = system: SF-295 CNS
SN12C renal = system: SN12C renal
HCT-15 colon = system: HCT-15 colon
OVCAR-4 ovarian = system: OVCAR-4 ovarian
SK-MEL-5 melanoma = system: SK-MEL-5 melanoma
786-0 renal = system: 786-0 renal
DU-145 prostate = system: DU-145 prostate
MDA-MB-231 breast = system: MDA-MB-231 breast
SW-620 colon = system: SW-620 colon
SF-539 CNS = system: SF-539 CNS
NCI-H23 lung = system: NCI-H23 lung
HOP-92 NSCLC = system: HOP-92 NSCLC
PC-3 prostate = system: PC-3 prostate
HCC-2998 colon = system: HCC-2998 colon
HL-60(TB) leukemia = system: HL-60(TB) leukemia
M14 melanoma = system: M14 melanoma
OVCAR-8 ovarian = system: OVCAR-8 ovarian
HOP-62 NSCLC = system: HOP-62 NSCLC
SK-MEL-28 melanoma = system: SK-MEL-28 melanoma
LOX IMVI melanoma = system: LOX IMVI melanoma
U251 CNS = system: U251 CNS
MOLT-4 leukemia = system: MOLT-4 leukemia
T-47D breast = system: T-47D breast
NCI-H460 lung = system: NCI-H460 lung
A549 NSCLC = system: A549 NSCLC
NCI-H226 lung = system: NCI-H226 lung
BT-549 breast = system: BT-549 breast
RPMI-8226 leukemia = system: RPMI-8226 leukemia
OVCAR-3 ovarian = system: OVCAR-3 ovarian
MDA-MB-435 = system: MDA-MB-435
KM12 colon = system: KM12 colon
HT29 colon = system: HT29 colon
UACC-257 melanoma = system: UACC-257 melanoma
EKVX NSCLC = system: EKVX NSCLC
SNB-75 CNS = system: SNB-75 CNS
CAKI-1 renal = system: CAKI-1 renal
HS 578T breast = system: HS 578T breast
MCF7 breast = system: MCF7 breast
CCRF-CEM leukemia = system: CCRF-CEM leukemia
SF-268 CNS = system: SF-268 CNS
K-562 leukemia = system: K-562 leukemia
COLO 205 colon = system: COLO 205 colon
SNB-19 CNS = system: SNB-19 CNS
SK-OV-3 ovarian = system: SK-OV-3 ovarian
UO-31 renal = system: UO-31 renal
MALME-3M melanoma = system: MALME-3M melanoma
SK-MEL-2 melanoma = system: SK-MEL-2 melanoma
UACC-62 melanoma = system: UACC-62 melanoma
HCT-116 colon = system: HCT-116 colon
SR leukemia = system: SR leukemia
ACHN renal = system: ACHN renal
NCI/ADR-RES ovarian = system: NCI/ADR-RES ovarian
A498 renal = system: A498 renal
TK-10 renal = system: TK-10 renal
IGROV1 ovarian = system: IGROV1 ovarian

**Q.** How did the TGI (MDA-N) turn out when `Cc1cc(C)c(C[C@H]2COC(=O)[C@]2(O)Cc2c(C)cc(C)cc2C)c(C)c1` was run?
**A.** 44.4 µM

**Q.** What about the TGI (OVCAR-5 ovarian) of the same compound?
**A.** 35.9 µM

**Q.** What about the TGI (NCI-H522 lung) of the same compound?
**A.** 34.4 µM

**Q.** And the TGI (RXF 393 renal)?
**A.** 25.4 µM

**Q.** What about the TGI (SF-295 CNS) of the same compound?
**A.** 34.1 µM

**Q.** And the TGI (SN12C renal)?
**A.** 36.8 µM

**Q.** What about the TGI (HCT-15 colon) of the same compound?
**A.** 36.2 µM

**Q.** And the TGI (OVCAR-4 ovarian)?
**A.** 28.3 µM

**Q.** And the TGI (SK-MEL-5 melanoma)?
**A.** 39.6 µM

**Q.** What about the TGI (786-0 renal) of the same compound?
**A.** 38.5 µM

**Q.** And the TGI (DU-145 prostate)?
**A.** 31.9 µM

**Q.** What about the TGI (MDA-MB-231 breast) of the same compound?
**A.** 35.9 µM

**Q.** And the TGI (SW-620 colon)?
**A.** 53.8 µM

**Q.** And the TGI (SF-539 CNS)?
**A.** 74.4 µM

**Q.** And the TGI (NCI-H23 lung)?
**A.** 47.2 µM

**Q.** What about the TGI (HOP-92 NSCLC) of the same compound?
**A.** 29.7 µM

**Q.** And the TGI (PC-3 prostate)?
**A.** 32.1 µM

**Q.** What about the TGI (HCC-2998 colon) of the same compound?
**A.** 30.7 µM

**Q.** And the TGI (HL-60(TB) leukemia)?
**A.** 42.4 µM

**Q.** And the TGI (M14 melanoma)?
**A.** 36.3 µM

**Q.** And the TGI (OVCAR-8 ovarian)?
**A.** 45.2 µM

**Q.** And the TGI (HOP-62 NSCLC)?
**A.** 35.8 µM

**Q.** What about the TGI (SK-MEL-28 melanoma) of the same compound?
**A.** 76.5 µM

**Q.** And the TGI (LOX IMVI melanoma)?
**A.** 36.1 µM

**Q.** What about the TGI (U251 CNS) of the same compound?
**A.** 38.4 µM

**Q.** And the TGI (MOLT-4 leukemia)?
**A.** > 100 µM

**Q.** What about the TGI (T-47D breast) of the same compound?
**A.** 25.2 µM

**Q.** What about the TGI (NCI-H460 lung) of the same compound?
**A.** 33.3 µM

**Q.** What about the TGI (A549 NSCLC) of the same compound?
**A.** 34 µM

**Q.** And the TGI (NCI-H226 lung)?
**A.** 33.7 µM

**Q.** And the TGI (BT-549 breast)?
**A.** 35.2 µM

**Q.** And the TGI (RPMI-8226 leukemia)?
**A.** 77.7 µM

**Q.** What about the TGI (OVCAR-3 ovarian) of the same compound?
**A.** 31.3 µM

**Q.** What about the TGI (MDA-MB-435) of the same compound?
**A.** 37 µM

**Q.** And the TGI (KM12 colon)?
**A.** 37.1 µM

**Q.** What about the TGI (HT29 colon) of the same compound?
**A.** > 100 µM

**Q.** And the TGI (UACC-257 melanoma)?
**A.** 34.6 µM

**Q.** What about the TGI (EKVX NSCLC) of the same compound?
**A.** 28.2 µM

**Q.** What about the TGI (SNB-75 CNS) of the same compound?
**A.** 43.6 µM

**Q.** And the TGI (CAKI-1 renal)?
**A.** 34.6 µM

**Q.** What about the TGI (HS 578T breast) of the same compound?
**A.** 38.5 µM

**Q.** What about the TGI (MCF7 breast) of the same compound?
**A.** 34 µM

**Q.** And the TGI (CCRF-CEM leukemia)?
**A.** > 100 µM

**Q.** And the TGI (SF-268 CNS)?
**A.** 30 µM

**Q.** What about the TGI (K-562 leukemia) of the same compound?
**A.** > 100 µM

**Q.** What about the TGI (COLO 205 colon) of the same compound?
**A.** 40.3 µM

**Q.** And the TGI (SNB-19 CNS)?
**A.** 39.4 µM

**Q.** What about the TGI (SK-OV-3 ovarian) of the same compound?
**A.** 34.2 µM

**Q.** And the TGI (UO-31 renal)?
**A.** 38.4 µM

**Q.** And the TGI (MALME-3M melanoma)?
**A.** 29.9 µM

**Q.** What about the TGI (SK-MEL-2 melanoma) of the same compound?
**A.** 40.2 µM

**Q.** What about the TGI (UACC-62 melanoma) of the same compound?
**A.** 28.5 µM

**Q.** And the TGI (HCT-116 colon)?
**A.** 43 µM

**Q.** What about the TGI (SR leukemia) of the same compound?
**A.** > 100 µM

**Q.** And the TGI (ACHN renal)?
**A.** 35.7 µM

**Q.** And the TGI (NCI/ADR-RES ovarian)?
**A.** 39.1 µM

**Q.** And the TGI (A498 renal)?
**A.** 30.9 µM

**Q.** And the TGI (TK-10 renal)?
**A.** 37.6 µM

**Q.** For `COc1cccc2cc(C(=O)O)c(=O)oc12`, which TGI (MDA-N) is on record?
**A.** > 100 µM

**Q.** What about the TGI (OVCAR-5 ovarian) of the same compound?
**A.** > 100 µM

**Q.** And the TGI (NCI-H522 lung)?
**A.** > 100 µM

**Q.** And the TGI (RXF 393 renal)?
**A.** > 100 µM

**Q.** And the TGI (SF-295 CNS)?
**A.** > 100 µM

**Q.** And the TGI (SN12C renal)?
**A.** > 100 µM

**Q.** And the TGI (HCT-15 colon)?
**A.** > 100 µM

**Q.** What about the TGI (OVCAR-4 ovarian) of the same compound?
**A.** > 100 µM

**Q.** And the TGI (SK-MEL-5 melanoma)?
**A.** > 100 µM

**Q.** What about the TGI (786-0 renal) of the same compound?
**A.** > 100 µM

**Q.** And the TGI (DU-145 prostate)?
**A.** > 100 µM

**Q.** What about the TGI (IGROV1 ovarian) of the same compound?
**A.** > 100 µM

**Q.** What about the TGI (MDA-MB-231 breast) of the same compound?
**A.** > 100 µM

**Q.** What about the TGI (SW-620 colon) of the same compound?
**A.** > 100 µM

**Q.** What about the TGI (SF-539 CNS) of the same compound?
**A.** > 100 µM

**Q.** And the TGI (NCI-H23 lung)?
**A.** > 100 µM

**Q.** What about the TGI (HOP-92 NSCLC) of the same compound?
**A.** > 100 µM

**Q.** And the TGI (PC-3 prostate)?
**A.** > 100 µM

**Q.** And the TGI (HCC-2998 colon)?
**A.** > 100 µM

**Q.** What about the TGI (HL-60(TB) leukemia) of the same compound?
**A.** > 100 µM

**Q.** And the TGI (M14 melanoma)?
**A.** > 100 µM

**Q.** And the TGI (OVCAR-8 ovarian)?
**A.** > 100 µM

**Q.** What about the TGI (HOP-62 NSCLC) of the same compound?
**A.** > 100 µM

**Q.** And the TGI (SK-MEL-28 melanoma)?
**A.** > 100 µM

**Q.** And the TGI (LOX IMVI melanoma)?
**A.** > 100 µM

**Q.** What about the TGI (U251 CNS) of the same compound?
**A.** > 100 µM

**Q.** What about the TGI (MOLT-4 leukemia) of the same compound?
**A.** > 100 µM

**Q.** What about the TGI (T-47D breast) of the same compound?
**A.** > 100 µM

**Q.** And the TGI (NCI-H460 lung)?
**A.** > 100 µM

**Q.** What about the TGI (A549 NSCLC) of the same compound?
**A.** > 100 µM

**Q.** What about the TGI (NCI-H226 lung) of the same compound?
**A.** > 100 µM

**Q.** What about the TGI (BT-549 breast) of the same compound?
**A.** > 100 µM

**Q.** What about the TGI (RPMI-8226 leukemia) of the same compound?
**A.** > 100 µM

**Q.** What about the TGI (OVCAR-3 ovarian) of the same compound?
**A.** > 100 µM

**Q.** What about the TGI (MDA-MB-435) of the same compound?
**A.** > 100 µM

**Q.** And the TGI (KM12 colon)?
**A.** > 100 µM

**Q.** And the TGI (HT29 colon)?
**A.** > 100 µM

**Q.** What about the TGI (UACC-257 melanoma) of the same compound?
**A.** > 100 µM

**Q.** And the TGI (EKVX NSCLC)?
**A.** > 100 µM

**Q.** And the TGI (SNB-75 CNS)?
**A.** > 100 µM

**Q.** And the TGI (CAKI-1 renal)?
**A.** > 100 µM

**Q.** What about the TGI (HS 578T breast) of the same compound?
**A.** > 100 µM

**Q.** What about the TGI (MCF7 breast) of the same compound?
**A.** > 100 µM

**Q.** And the TGI (CCRF-CEM leukemia)?
**A.** > 100 µM

**Q.** And the TGI (SF-268 CNS)?
**A.** > 100 µM

**Q.** What about the TGI (K-562 leukemia) of the same compound?
**A.** > 100 µM

**Q.** And the TGI (COLO 205 colon)?
**A.** > 100 µM

**Q.** And the TGI (SNB-19 CNS)?
**A.** > 100 µM

**Q.** What about the TGI (UO-31 renal) of the same compound?
**A.** > 100 µM

**Q.** What about the TGI (MALME-3M melanoma) of the same compound?
**A.** > 100 µM

**Q.** And the TGI (SK-MEL-2 melanoma)?
**A.** > 100 µM

**Q.** What about the TGI (UACC-62 melanoma) of the same compound?
**A.** > 100 µM

**Q.** And the TGI (HCT-116 colon)?
**A.** > 100 µM

**Q.** What about the TGI (SR leukemia) of the same compound?
**A.** > 100 µM

**Q.** And the TGI (ACHN renal)?
**A.** > 100 µM

**Q.** And the TGI (NCI/ADR-RES ovarian)?
**A.** > 100 µM

**Q.** And the TGI (A498 renal)?
**A.** > 100 µM

**Q.** And the TGI (TK-10 renal)?
**A.** > 100 µM

Source: PubChem BioAssay (NCI)
